According to PMC7993727, “Discovery of a novel AR/HDAC6 dual inhibitor for prostate cancer treatment” (Aging (Albany NY), 2021):

What was measured:
Assay type in all cases: cell-based
TMPRSS2 = TMPRSS2 mRNA (qRT-PCR) and protein (Western blot) expression in VCaP cells; settings: 10 nM DHT, 24 hours
Description: (§1) RNA expression level was analyzed by qRT-PCR and protein expression level was analyzed by Western blot. […] (I) Representative immunofluorescence microscopic images of VCaP cells for checking the subcellular localization of AR.
(§2) The RNA of VCaP cells was extracted using a Simply P Total RNA Extraction kit (Bioer technology) and cDNA was synthesized using a SMARTer PCR cDNA Synthesis Kit (Clontech). PSA and β-actin primers were synthesized by Sangon Biotech according to previous literature. Real-time PCR was performed using the PowerUp SYBR™ Green kit (ThermoFisher). The PCR program was run on a LightCycler 480II (Roche) and set as follows: 2 minutes at 95° C followed by 40 cycles of 30 seconds at 95° C, 15 seconds at 60° C and 30 seconds at 72° C. Data were quantified using the 2-ΔΔCt method based on the Ct values of PSA and β-actin from two parallel experiments performed in triplicate.
(§3) The whole-cell extracts were prepared in lysis buffer with a protease inhibitor cocktail (Bimake), while the xenograft tissue extracts were prepared in 0.5% Nonidet P 40 Substitute solution (Biosharp) with cocktail protease inhibitor (Bimake). Each sample containing 30 μg of total protein was loaded onto 10% SDS-PAGE and electrotransferred onto polyvinylidene fluoride membranes. […]

HDAC6 = target: T1, HDAC6 (Homo sapiens, UniProt Q9UBN7); test: acetylation of α-tubulin (HDAC6 substrate) in VCaP cells, Western blot; settings: 24 hours
T1 sequence (Q9UBN7 1-1215): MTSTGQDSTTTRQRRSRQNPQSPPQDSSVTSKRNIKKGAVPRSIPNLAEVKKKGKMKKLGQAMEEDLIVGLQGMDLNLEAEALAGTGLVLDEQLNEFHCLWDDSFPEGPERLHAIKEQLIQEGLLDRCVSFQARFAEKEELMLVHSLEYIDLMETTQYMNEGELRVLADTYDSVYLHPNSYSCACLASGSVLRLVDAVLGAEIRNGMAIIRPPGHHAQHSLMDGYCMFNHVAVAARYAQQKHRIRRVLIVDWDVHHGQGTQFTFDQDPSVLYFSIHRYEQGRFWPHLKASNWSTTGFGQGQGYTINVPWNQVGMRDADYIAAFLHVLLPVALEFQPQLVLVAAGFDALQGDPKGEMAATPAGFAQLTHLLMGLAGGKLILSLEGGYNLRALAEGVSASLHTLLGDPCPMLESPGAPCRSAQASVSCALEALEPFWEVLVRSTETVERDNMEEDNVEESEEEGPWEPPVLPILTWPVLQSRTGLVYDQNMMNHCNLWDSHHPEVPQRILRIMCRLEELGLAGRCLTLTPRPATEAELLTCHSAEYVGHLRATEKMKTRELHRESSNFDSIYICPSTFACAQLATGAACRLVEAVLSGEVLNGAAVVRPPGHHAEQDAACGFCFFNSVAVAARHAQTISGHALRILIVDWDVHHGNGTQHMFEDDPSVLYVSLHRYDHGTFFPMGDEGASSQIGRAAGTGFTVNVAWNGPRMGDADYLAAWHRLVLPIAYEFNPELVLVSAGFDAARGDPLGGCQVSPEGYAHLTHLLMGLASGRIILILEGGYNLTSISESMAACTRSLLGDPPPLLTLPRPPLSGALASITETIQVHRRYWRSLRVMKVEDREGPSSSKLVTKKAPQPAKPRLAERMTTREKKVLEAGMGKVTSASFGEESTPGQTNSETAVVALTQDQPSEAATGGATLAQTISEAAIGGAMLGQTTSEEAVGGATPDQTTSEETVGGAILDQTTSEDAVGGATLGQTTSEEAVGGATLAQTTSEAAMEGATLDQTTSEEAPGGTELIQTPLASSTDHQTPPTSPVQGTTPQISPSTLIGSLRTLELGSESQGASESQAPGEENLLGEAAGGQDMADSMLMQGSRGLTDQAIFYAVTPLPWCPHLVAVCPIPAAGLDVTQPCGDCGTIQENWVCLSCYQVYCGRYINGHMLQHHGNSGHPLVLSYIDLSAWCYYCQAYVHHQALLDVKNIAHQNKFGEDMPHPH
Description: as §1
(§4) To evaluate the HDAC6 inhibition ability of Zeta55 in VCaP cells, the acetylation status of α-tubulin protein (a HDAC6 substrate) was assessed using western blot. […] We assessed the protein level of AR in VCaP cells.
(§5) The whole-cell extracts were prepared in lysis buffer with a protease inhibitor cocktail (Bimake), while the xenograft tissue extracts were prepared in 0.5% Nonidet P 40 Substitute solution (Biosharp) with cocktail protease inhibitor (Bimake). Each sample containing 30 μg of total protein was loaded onto 10% SDS-PAGE and electrotransferred onto polyvinylidene fluoride membranes. The membranes were blocked with 5% skimmed milk in PBST at room temperature for 2 hours and incubated with primary antibodies at 4° C overnight. After the membranes were washed with PBST three times, they were incubated with horseradish peroxidase-conjugated anti-rabbit or anti-mouse secondary antibody at room temperature for 1 hour. Chemiluminescent detection was performed with WesternBright ECL (Advansta). The immunoblots were visualized using the FluorChem FC3 system (ProteinSimple).

AR = target: T2, AR (Homo sapiens, UniProt P10275); settings: VCaP cells, 24 hours
T2 construct: The VCaP cells were transfected with MMTV-LUC for 24 hours; endogenous in cells; host or cells: VCaP
T2 sequence (P10275 1-920): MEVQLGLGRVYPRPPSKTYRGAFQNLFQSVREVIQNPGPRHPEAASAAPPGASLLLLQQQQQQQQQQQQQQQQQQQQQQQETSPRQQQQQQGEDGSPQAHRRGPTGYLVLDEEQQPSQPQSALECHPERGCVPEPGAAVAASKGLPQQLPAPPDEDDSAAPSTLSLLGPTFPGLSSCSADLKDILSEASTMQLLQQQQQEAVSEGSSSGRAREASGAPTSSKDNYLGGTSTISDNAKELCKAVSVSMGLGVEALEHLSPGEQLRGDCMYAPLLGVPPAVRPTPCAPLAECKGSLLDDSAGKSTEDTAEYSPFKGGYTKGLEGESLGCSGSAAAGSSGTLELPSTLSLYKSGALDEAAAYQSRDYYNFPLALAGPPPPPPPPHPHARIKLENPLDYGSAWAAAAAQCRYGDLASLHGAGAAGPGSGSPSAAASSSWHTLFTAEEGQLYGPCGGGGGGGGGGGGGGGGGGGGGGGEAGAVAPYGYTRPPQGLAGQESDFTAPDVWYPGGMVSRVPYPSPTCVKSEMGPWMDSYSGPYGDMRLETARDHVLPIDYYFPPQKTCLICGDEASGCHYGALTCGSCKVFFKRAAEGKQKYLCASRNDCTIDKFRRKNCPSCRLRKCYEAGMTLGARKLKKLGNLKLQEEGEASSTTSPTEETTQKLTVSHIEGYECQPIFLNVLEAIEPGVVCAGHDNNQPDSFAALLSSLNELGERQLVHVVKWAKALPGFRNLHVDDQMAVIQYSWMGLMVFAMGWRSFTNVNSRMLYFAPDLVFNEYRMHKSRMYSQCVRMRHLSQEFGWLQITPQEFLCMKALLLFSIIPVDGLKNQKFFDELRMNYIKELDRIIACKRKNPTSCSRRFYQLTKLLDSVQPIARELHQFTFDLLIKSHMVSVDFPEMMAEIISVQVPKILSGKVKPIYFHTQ
Description: as §1, §4, §5

PSA = PSA mRNA (qRT-PCR) and protein (Western blot) expression in VCaP cells; settings: 10 nM DHT, 24 hours
Description: as §1, §2, §3

N#Cc1ccc(N2C(=O)C3(CCC3)N(c3ccc(C(=O)NO)c(F)c3)C2=S)cc1C(F)(F)F [Zeta55]
DHT-induced endogenous mRNA and protein expression of TMPRSS2 (TMPRSS2): significantly suppressed | α-tubulin acetylation (HDAC6): enhanced α-tubulin acetylation in a dose-dependent manner | AR protein level (AR): decreased AR protein level in a dose-dependent manner | DHT-induced endogenous mRNA and protein expression of PSA (PSA): significantly suppressed
